“Also recorded” adds a separate entry of the source.

In data set [1] the test system is fibroblastic cells (IPF lung fibroblasts, cardiac fibroblasts, dermal fibroblasts, renal mesangial cells, LX2 hepatic stellate cell line). Put plainly: Procollagen and fibronectin (ECM) secretion from fibroblastic cells, ELISA. The data set is classed as cell-based. From the text: For example, as described herein, CRV431 can regulate oncogenes, and have anti-oncogenic activities. CRV431 can decrease production of the extracellular matrix (ECM) molecules, collagen and fibronectin, from fibroblastic cells derived from five cell types, including lung fibroblasts from a patient with idiopathic pulmonary fibrosis (“IPF”), cardiac fibroblasts, dermal (skin) fibroblasts, renal mesangial cells, and the LX2 hepatic stellate cell line. It is known that IPF is an aggressive fibrotic disease in tremendous need of new treatments. […] The extent of inhibition was similar whether or not the cells were stimulated with the profibrotic agent, transforming growth factor-beta (TGFβ), consistent with direct effects on ECM synthesis.
In general terms: An ELISA detects its analyte on a solid surface through an enzyme-linked reagent.

For data set [2], the system named is human precision cut liver slices (PCLS). Put plainly: Sirius red histological staining of PCLS (tissue fibrosis). It counts as cell-based. The procedure:
(§1) PCLS were obtained from 5 human donors who underwent resection of liver cancer. Replicate slices were collected from healthy margins of the resections and cultured for 4 or 6 days depending on the experimental protocol. In the Nonstimulation Protocol slices were cultured for 6 days and treated for the entire period with DMSO vehicle or 5 μM CRV431. In the Stimulation Protocol slices were rested for 1 day and then administered the cytokines, TGFβ and PDGF-BB, for 3 days to stimulate inflammation and fibrosis. DMSO vehicle, CRV431 (1 and 5 μM), Alk5i (10 μM), obeticholic acid (5 μM), elafibranor (5 μM), resmetirom (5 μM), and Aramchol (5 μM) were administered individually as drug treatments in the Stimulation Protocol concurrent with TGFβ+PDGF-BB. Culture medium treatments were replaced daily.
(b) Sirius red histological staining. […] Sirius red was quantified morphometrically in the histological sections as the percentage area with Sirius red staining in 10 sections from each treatment. In the Nonstimulation Protocol the quantity of Sirius red staining was expressed relative to the vehicle group. In the Stimulation Protocol the quantity of Sirius red staining was expressed relative to nonstimulated PCLS (0%) and TGFβ+PDGF-BB-stimulated+vehicle PCLS (100%). Results are shown in FIG. 1B (Sirius red staining for tissue fibrosis).

Data set [3] concerns HepG2 hepatocellular carcinoma cells. The following applies: 4 days, strongest with 0.37 μM daunorubicin and CRV431 0.25-4 μM. The procedure:
(§2) HepG2 hepatocellular carcinoma cell lines and Huh7 hepatocellular carcinoma cell lines were plated in 96 well plates at subconfluent densities. The chemotherapy compound, daunorubicin, and CRV431 were applied alone or in combination at the indicated concentrations in duplicate wells for each treatment. After 4 days incubation, cell viability was assessed with Cell Titer Glo 2.0.

Data set [4] concerns Huh7 hepatocellular carcinoma cells. The settings on record: 4 days, strongest with 0.37 μM daunorubicin and CRV431 1-4 μM. The procedure: as §2
Data set [5] relates to human precision cut liver slices (PCLS). Put plainly: Gene expression in PCLS by RT-PCR. The settings on record: collagen1α1, αSMA, TIMP1, IL-6, MCP-1. The data set is classed as cell-based. The procedure: as §1
(c) Gene expression by RT-PCR. RNA was isolated from duplicate liver slices per treatment at the end of the experiments and evaluated by RT-PCR for 5 markers of inflammation and fibrosis: MCP-1, IL-6, TIMP1, αSMA, and collagen 1α1. β actin was used as a reference gene to calculate relative levels of each target gene RNA. […] Results are shown in FIG. 1C (gene expression by RT-PCR).

`CC[C@@H]1NC(=O)[C@H]([C@H](O)[C@H](C)CCCCCCNC(C)=O)N(C)C(=O)[C@H](C(C)C)N(C)C(=O)[C@H](CC(C)C)N(C)C(=O)[C@H](CC(C)C)N(C)C(=O)[C@@H](C)NC(=O)[C@H](C)NC(=O)[C@H](CC(C)C)N(C)C(=O)[C@H](C(C)C)NC(=O)[C@H](CC(C)C)N(C)C(=O)[C@@H](C)N(C)C1=O` [CRV431]: the “procollagen and fibronectin secretion” value in data set [1] (ELISA, with or without TGFβ stimulation) is “dose-dependently decreased procollagen and fibronectin secretion from all cell types”. Also, in data set [1] (clinically relevant concentrations), the cell viability result is given as “without causing any reduction in cell viability”. For the same compound, in data set [1] (clinically relevant concentrations, collagen and fibronectin), the “decrease of ECM production” value is given as “up to 55%”. Moreover, the “tissue fibrosis vs vehicle-treated slices” value in data set [2] (6 days of culture, absence of exogenous TGFβ+PDGF-BB) is listed as “less fibrosis than vehicle-treated slices”. The “prevention of TGFβ+PDGF-BB-induced tissue fibrosis” value in data set [2] (Stimulation Protocol, compared with other NASH drug candidates) is listed as “most effective of five NASH drug candidates”. Further, the “effect on cytotoxicity of daunorubicin” value in data set [3] and in data set [4] was “increased the cytotoxicity of daunorubicin” throughout. For the same compound, the “RNA levels of inflammation and fibrosis markers by qRT-PCR” value in data set [5] is “reductions in RNA levels of collagen1α1, αSMA, TIMP1, IL-6, and MCP-1; also recorded: decreased the mean daily secretion and gene expression of all markers”.

These data come from US20210269479A1, “USE OF CY[…] FOR TREATING CANCER” (Hepion Pharmaceuticals, Inc., priority 2020, published 2021).
